Assay results as given in patent publication US10238665B2, “Methods for treating fungal infections” (BRIGHAM YOUNG UNIVERSITY, priority 2014, dated 2019).
Converted amounts (≈) assume the structure as drawn. Where two headings read alike, the source gives them in different places.

Columns and labels:
C. lusitaniae = assay: Additional MIC experiments (CSA-13 and squalamine); format: cell-based, Candida lusitaniae
Description: (§1) An antifungal agent is serially diluted two-fold in a desired medium to produce ten concentrations of the antifungal under investigation. The range used is chosen to include achievable serum levels of the drug. A standardized inoculum of either yeast cells or conidia is diluted in an equal volume of the desired medium. The yeast or conidia inoculum is incubated in the serially diluted drug wells at 35° C. Two wells are used as controls. The negative control well has only media and serves as a sterility control. The positive control well has the standardized inoculum with no drug, and is used to compare with the amount of growth in the drug wells.
(§2) Testing is reported as an MIC, or minimum inhibitory concentration in μg/ml. This number represents the concentration at which the organism's growth in inhibited 50% from the control well for yeasts, and 80% for dermatophytes and certain filamentous fungi/antifungal combinations. Amphotericin B readings are taken at 100% inhibition.
(§3) Fungal cultures were prepared as follows: • 1. Grow Candida sp. on a potato dextrose agar plate for 24 hrs. at 35° C. Grow Cryptococcus sp. for 48 hrs. • 2. Pick 5 colonies >1 mm in diameter to 5 ml of 0.85% sterile saline in a sterile 15 ml conical tube and vortex. • 3. Count the cells using a hemacytometer • 4. […]

[1] = system: C. krusei (fluconazole resistant); assay: MIC determination, broth microdilution (CLSI M27-A2); format: cell-based, Candida krusei; conditions: 35° C., 24 hrs, 50% growth inhibition
Description: (§4) CSA 8 and CSA 13 were dissolved in dimethyl sulfoxide (DMSO) to create stock solutions. These solutions were applied to fungal isolates to determine the minimum inhibitory concentration (MIC) for each CSA.
as §1, §2
(§5) Fungal cultures were prepared as follows: • 1. Grow Candida sp. on a potato dextrose agar plate for 24 hrs. at 35° C. Grow Cryptococcus sp. for 48 hrs. • 2. […]

C. krusei = assay: as above; format: cell-based, Candida krusei; conditions: 35° C., 24 hrs, 50% growth inhibition
Description: as §4, §1, §2, §5

[2] = system: T. rubrum (terbinafine resistant); assay: MIC determination, broth microdilution (CLSI M38-A); format: cell-based, Trichophyton rubrum; conditions: 35° C., 80% growth inhibition for dermatophytes
Description: as §4, §1, §2, §5

[3] = system: C. albicans (fluconazole resistant); assay: MIC determination, broth microdilution (CLSI M27-A2); format: cell-based, Candida albicans; conditions: 35° C., 24 hrs, 50% growth inhibition
Description: as §4, §1, §2, §5

Cryptococcus neofermans = assay: Additional MIC experiments (CSA-13 and squalamine); format: cell-based, Cryptococcus neoformans
Description: as §1, §2, §3

T. tonsurans = assay: MIC determination, broth microdilution (CLSI M38-A); format: cell-based, Trichophyton tonsurans; conditions: 35° C., 80% growth inhibition for dermatophytes
Description: as §4, §1, §2, §5

C. parapsilosis = assay: MIC determination, broth microdilution (CLSI M27-A2); format: cell-based, Candida parapsilosis; conditions: 35° C., 24 hrs, 50% growth inhibition
Description: as §4, §1, §2, §5

C. glabrata = assay: Additional MIC experiments (CSA-13 and squalamine); format: cell-based, Candida glabrata
Description: as §1, §2, §3

Microsporum canis = assay: MIC determination, broth microdilution (CLSI M38-A); format: cell-based; conditions: 35° C., 80% growth inhibition for dermatophytes
Description: as §4, §1, §2
(§6) Fungal cultures were prepared as follows: • 1. Grow Candida sp. on a potato dextrose agar plate for 24 hrs. at 35° C. Grow Cryptococcus sp. for 48 hrs. • 2. Pick 5 colonies >1 mm in diameter to 5 ml of 0.85% sterile saline in a sterile 15 ml conical tube and vortex. • 3. Count the cells using a hemacytometer • 4. Prepare a working suspension of yeast cells in RPMI-1640 to a final concentration of 2-5×10^3 CFU/ml (CFU=colony forming units or yeast cells) • 5. Prepare at least 2.5 ml of the working yeast suspension per drug per plate.
(§7) Plates were prepared as follows: • 1. Aseptically dispense RPMI-1640 into a 25 ml reservoir. • 2. Using a multichannel pipette with 8 tips, dispense 100 μl of RPMI-1640 into the wells of a 96 well round bottom plate in columns 11 and 12. These will serve as growth controls and sterility controls, respectively. • 3. Remove excess liquid from the reservoir. • 4. Add the lowest concentration of antifungal from the set of final concentrations to the reservoir, and using the same set of tips, dispense 100 μl into the wells of column 10. • 5. Repeat steps 4-5 for each final concentration, working from lowest to highest concentration into columns 9 through 1, until all columns are filled. • 6. Using a new set of pipette tips and a new reservoir, add 100 μl of inoculum to each well except […]. • 7. Run each organism in duplicate (i.e. add isolate one to rows 1 and 2, isolate two to rows 3 and four, etc.) • 8. Incubate the plates at 35° C. for 24 hrs. for Candida sp. and 72 hrs. for Cryptococcus sp. • Similar procedures are followed for Aspergillus sp., Trichophyton sp., and Microsporum sp.
(§8) Stock solutions of water-soluble and water insoluble antifungal agents were prepared according to standard laboratory procedures.
(§9) Antifungal susceptibility testing gives a numerical result expressed in μg/ml indicating an in vitro MIC, or minimum inhibitory concentration, of the drug being investigated. The Clinical and Laboratory Standards Institute (CLSI) has provided guidelines for standardized microdilution broth testing (CLSI M27-A2 for yeasts and CLSI M38-A for filamentous molds), which is followed in the above procedure. The CLSI has also published guidelines for interpretation of MIC results based on clinical correlation studies for yeasts.

Aspergillus fumigatus = assay: as above; format: cell-based; conditions: 35° C.
Description: as §4, §1, §2, §6, §7, §8, §9

Trichophyton rubrum = assay: as above; format: cell-based; conditions: 35° C., 80% growth inhibition for dermatophytes
Description: as §4, §1, §2, §6, §7, §8, §9

Cladosporium sp. = assay: as above; format: cell-based; conditions: 35° C.
Description: as §4, §1, §2, §6, §7, §8, §9

Penicillium sp. = assay: as above; format: cell-based; conditions: 35° C.
Description: as §4, §1, §2, §6, §7, §8, §9

Aspergillus niger = assay: as above; format: cell-based; conditions: 35° C.
Description: as §4, §1, §2, §6, §7, §8, §9

T. mentagrophytes = assay: as above; format: cell-based, Trichophyton mentagrophytes; conditions: 35° C., 80% growth inhibition for dermatophytes
Description: as §4, §1, §2, §5

C. guilliermondii = assay: Additional MIC experiments (CSA-13 and squalamine); format: cell-based, Candida guilliermondii
Description: as §1, §2, §3

[4] = system: C. galabrata (fluconazole resistant); assay: MIC determination, broth microdilution (CLSI M27-A2); format: cell-based, Candida glabrata; conditions: 35° C., 24 hrs, 50% growth inhibition
Description: as §4, §1, §2, §5

Candida albicans = assay: as above; format: cell-based; conditions: 35° C., 24 hrs, 50% growth inhibition
Description: as §4, §1, §2, §5

C. tropicalis = assay: Additional MIC experiments (CSA-13 and squalamine); format: cell-based, Candida tropicalis
Description: as §1, §2, §3

[5] = system: 100 Candida auris isolates; assay: Antifungal effectiveness against Candida auris, MIC by CLSI M27-A3; format: cell-based
Description: The antifungal effectiveness of CSA-131 was tested against 100 Candida auris isolates. The C. auris isolates were form all over the world and covered know C. auris clades. The selection included isolated known to have elevated MIC values against fluconazole, the echinocandins, and/or amphotericin B.
Testing was performed according to the standards of the Clinical and Laboratory Standards Institute reference methodology M27-A3 (as of 2017). CSA-131 was dissolved in DMSO and diluted as described in M27-A3 to give a final DMSO concentration of <1%. Dilution plates were stored at −70° C. until used and were used within one week of being produced. All results were read visually after 24 hours of incubation at the lowest drug concentration at which there was a 50% decrease in growth by visual inspection. Quality control isolates C. parapsilosis ATCC22019 and C. krusei ATCC6258 were included on each day of testing although there are no standard QC values for these isolates against this compound. The MIC values for ATCC22019 and ATCC6258 remained within a tight range of 1-2 dilutions over the course of the study.

[6] = C. auris isolates with elevated echinocandin MICs, 7 isolates

`CCCCCCCCNCCC[C@@H](C)[C@H]1CC[C@H]2[C@@H]3[C@H](OCCCN)C[C@@H]4C[C@H](OCCCN)CC[C@]4(C)[C@H]3C[C@H](OCCCN)[C@]12C` [CSA 13] showed an MIC (C. lusitaniae; C. lusitaniae) of 0.5 µg/mL, an MIC [1] of 1 µg/mL and an MIC (C. krusei) of 2 µg/mL. It also gave an MIC [2] of 4 µg/mL, an MIC [3] of 2 µg/mL and an MIC (Cryptococcus neofermans; Cryptococcus neofermans) of 0.5 µg/mL. For the same molecule, the MIC (T. tonsurans) was 2 µg/mL, the MIC (C. parapsilosis) was 2 µg/mL and the MIC (C. glabrata; C. glabrata) was 0.5 µg/mL. For the same molecule, the MIC (Microsporum canis) was 2 µg/mL, the MIC (Aspergillus fumigatus) was 8 µg/mL and the MIC (Trichophyton rubrum) was 4 µg/mL. The MIC (Cladosporium sp.) was 0.5 µg/mL, the MIC (Penicillium sp.) was 0.5 µg/mL and the MIC (Aspergillus niger) was 2 µg/mL. The MIC (T. mentagrophytes) was 2 µg/mL, the MIC (C. guilliermondii; C. guilliermondii) was 0.5 µg/mL and the MIC [4] was 2 µg/mL. The MIC (Candida albicans) was 2 µg/mL and the MIC (C. tropicalis; C. tropicalis) was 0.5 µg/mL.

With `CCCCCCCCCCCCNCCC[C@@H](C)[C@H]1CC[C@H]2[C@@H]3[C@H](OCCCN)C[C@@H]4C[C@H](OCCCN)CC[C@]4(C)[C@H]3C[C@H](OCCCN)[C@]12C` [CSA-131] the “MIC Range” value ([5]; 100 C. auris isolates, 24 hours, 50% decrease in growth) was 0.5 to 1 µg/mL, the “MIC Range” value ([5]; C. auris Clade 1, 47 isolates) was 0.5 to 1 µg/mL and the MIC90 ([5]; C. auris Clade 2, 11 isolates) was 1 µg/mL (≈ 1.36 µM). For the same molecule, the “MIC Range” value ([5]; C. auris Clade 2, 11 isolates) was 0.5 to 1 µg/mL, the MIC90 ([5]; C. auris Clade 3, 39 isolates) was 1 µg/mL (≈ 1.36 µM) and the “MIC Range” value ([5]; C. auris Clade 3, 39 isolates) was 0.5 to 1 µg/mL. For the same molecule, the MIC90 ([5]; C. auris Clade 4, 3 isolates) was 1 µg/mL (≈ 1.36 µM), the “MIC Range” value ([5]; C. auris Clade 4, 3 isolates) was 0.5 to 1 µg/mL and the MIC90 [5, 6] was 1 µg/mL (≈ 1.36 µM). The “MIC Range” value [5, 6] was 0.5 to 1 µg/mL, the MIC50 ([5]; Candidozyma auris, 24 h, 100 C. auris isolates, 24 hours, 50% decrease in growth, read-out: MIC50) was 1 µg/mL (≈ 1.36 µM) and the MIC ([5]; Candidozyma auris, 24 h, 100 C. auris isolates, 24 hours, 50% decrease in growth, read-out: MIC Mode) was 1 µg/mL (≈ 1.36 µM). It also gave an MIC50 ([5]; Candidozyma auris, C. auris Clade 1, 47 isolates, read-out: MIC50) of 1 µg/mL (≈ 1.36 µM), an MIC90 ([5]; Candidozyma auris, C. auris Clade 1, 47 isolates, read-out: MIC90) of 1 µg/mL (≈ 1.36 µM) and an MIC ([5]; Candidozyma auris, C. auris Clade 1, 47 isolates, read-out: MIC Mode) of 1 µg/mL (≈ 1.36 µM). For the same molecule, the MIC50 ([5]; Candidozyma auris, C. auris Clade 2, 11 isolates, read-out: MIC50) was 1 µg/mL (≈ 1.36 µM), the MIC ([5]; Candidozyma auris, C. auris Clade 2, 11 isolates, read-out: MIC Mode) was 1 µg/mL (≈ 1.36 µM) and the MIC50 ([5]; Candidozyma auris, C. auris Clade 3, 39 isolates, read-out: MIC50) was 1 µg/mL (≈ 1.36 µM). For the same molecule, the MIC ([5]; Candidozyma auris, C. auris Clade 3, 39 isolates, read-out: MIC Mode) was 1 µg/mL (≈ 1.36 µM), the MIC50 ([5]; Candidozyma auris, C. auris Clade 4, 3 isolates, read-out: MIC50) was 0.5 µg/mL (≈ 0.682 µM) and the MIC ([5]; Candidozyma auris, C. auris Clade 4, 3 isolates, read-out: MIC Mode) was 0.5 µg/mL (≈ 0.682 µM). The MIC50 ([5]; Candidozyma auris, C. auris isolates with elevated echinocandin MICs, 7 isolates, read-out: MIC50) was 1 µg/mL (≈ 1.36 µM), the MIC ([5]; Candidozyma auris, C. auris isolates with elevated echinocandin MICs, 7 isolates, read-out: MIC Mode) was 1 µg/mL (≈ 1.36 µM) and the MIC50 ([5]; Candidozyma auris, fluconazole Resistant C. auris isolates, 69 isolates) was 1 µg/mL (≈ 1.36 µM). It also gave an MIC50 ([5]; Candidozyma auris, fluconazole Susceptible C. auris isolates, 30 isolates) of 0.5 µg/mL (≈ 0.682 µM), an MIC ([5]; Candidozyma auris, read-out: MIC Mode, fluconazole Resistant C. auris isolates, 69 isolates) of 1 µg/mL (≈ 1.36 µM) and an MIC90 ([5]; Candidozyma auris, 100 C. auris isolates, 24 hours, 50% decrease in growth, read-out: MIC90) of 1 µg/mL (≈ 1.36 µM). For the same molecule, the “activity against C. auris (in words)” value ([5]; collection of 100 C. auris isolates, 4 clades) was “showed activity against all C. auris among this collection”, the MIC90 ([5]; {}) was 1 µg/mL (≈ 1.36 µM) and the “MIC Range” value ([5]; {}) was 0.5 to 1 µg/mL.

In the case of `CC(C)[C@@H](CC[C@@H](C)[C@H]1CC[C@H]2[C@@H]3[C@H](O)C[C@H]4C[C@@H](NCCCNCCCCN)CC[C@]4(C)[C@H]3CC[C@]12C)OS(=O)(=O)O` [Squalamine, squalamine, reference compound], the MIC (C. lusitaniae; Clavispora lusitaniae) is reported as 4 µg/mL, the MIC (Cryptococcus neofermans; Cryptococcus) is reported as 4 µg/mL and the MIC (C. glabrata; Nakaseomyces glabratus) is reported as 2 µg/mL. It also gave an MIC (C. guilliermondii; Meyerozyma guilliermondii) of 4 µg/mL and an MIC (C. tropicalis; Candida tropicalis) of 4 µg/mL.
